The test system of experiment [1] is monoclonal antibody 61C6. Briefly: Cross-reactivity evaluation with lyophilized reagents (Bi-mAb-Beads capture, TAG Plus 1-5C-5-FU-BSA detector). It counts as binding, Balb/c mouse. The method, then: This experiment was performed to test the specificity of the monoclonal antibody 61C6 against 5-FU analogues, pro-drugs and interference reagents. […] In this Example, the components of 5-FU assay (capture, detector) were lyophilized and the sample (calibrator, controls, and spiked plasma samples) were added directly to the lyophilized reagent pellets.
The assay was prepared using the following protocol. […] The capture and the detector solutions were aliquoted (20 μL) and lyophilized.
The assay procedure was as follows. The electrostatic on the surface of the microplate was reduced by using a Zerostat Antistatic Device prior to use. The device was pointed on the surface of the microplate, squeezed and the trigger released a few times across the microplate. 1 lyophilized pellet of each capture and detector reagent was transferred into plate wells using the Vacuum Pick-Up System. A hollow needle tip was attached onto the pick-up pen, and the finger controlled vacuum was used for picking up (the index finger was placed over the hole so that vacuum was drawn through the needle) or releasing pellet (lifting the index finger off of the hole). On a metal plate holder of a Digital Heat Block set at 37±2° C., 50 μL of each calibrator, control, and sample (in this case cross-reactivity panels) were added in duplicate directly into plate wells containing 2 lyophilized pellets. The plate was placed on the Micromix shaker set at Form 8 & Amp 6 for 30 seconds to mix. The plate was then placed in the metal plate holder of a Digital Heat Block set at 37±2° C. The plate was covered with a plate cover and incubated for 5±0.5 minutes.

For experiment [2], the system named is mAb 61C6. The experiment can be described thus: Competitive ECL cross-reactivity test in human plasma with and without 5-FU. To be noted: for Cross-Reactivity (%): human plasma, chemicals 10 μg/mL, chemotherapy drugs 100 μg/mL; for cross-reactivity: with and without 5-FU, Table 5.
Experiment [3] deals with antibody 61C6. Briefly: 5-FU ECL assay with antibody 61C6, summary of cross-reactivity. The note with it: 5-FU assay with antibody 61C6. It counts as binding, Balb/c mouse. The procedure: The capture reagent 1-5C-5-FU-M270 beads appeared to be stable at 2-8° C. for at least 40 hours. […] The functional sensitivity was determined to be approximately 10 ng/mL (which is an estimate of functional sensitivity based on the calibrator curve).

The subject of experiment [4] is anti-5-FU 61C6 monoclonal antibody. Briefly: Assay timing evaluation of competitive 5-FU ECL immunoassay. It counts as binding, Balb/c mouse. To be noted: 25 ng/mL of 5-FU in charcoal stripped plasma.
Setting [5] is: Without 5-FU, lyophilized reagents, human plasma.

`CN(Cc1cnc2nc(N)nc(N)c2n1)c1ccc(C(=O)N[C@@H](CCC(=O)O)C(=O)O)cc1` [Methotrexate]: the figures for the “% Cross-React” value in experiment [1] (With 75 ng/mL Spiked 5-FU), in experiment [1] (With 1000 ng/mL Spiked 5-FU) and in experiment [1] (setting [5]) were 0.0%, 0.1% and 0.0%, respectively. Further, the “Cross-Reactivity (%)” value is on record as −0.02% in experiment [2] (With 5-FU (379 ng/mL)) and 0.000% in experiment [2] (Without 5-FU). The cross-reactivity entry in experiment [2] is on record as “essentially undetectable”.

On to `O=c1cc[nH]c(=O)[nH]1` [Uracil], for which the figures for the “% Cross-React” value in experiment [1] (With 75 ng/mL Spiked 5-FU), in experiment [1] (With 1000 ng/mL Spiked 5-FU) and in experiment [1] (setting [5]) were 3.4%, 2.6% and 1.9%, respectively. The “Cross-Reactivity (%)” value amounted to 0.11% in experiment [2] (With 5-FU (379 ng/mL)) and 0.94% in experiment [2] (Without 5-FU).

As for `Nc1nc(=O)c2c([nH]1)NCC(CNc1ccc(C(=O)N[C@@H](CCC(=O)O)C(=O)O)cc1)N2C=O` (mixture of isomers) [Folinic Acid], the “% Cross-React” value in experiment [1] (With 75 ng/mL Spiked 5-FU) is recorded as 0.1%; in experiment [1] (With 1000 ng/mL Spiked 5-FU), 0.0%; in experiment [1] (setting [5]), 0.0%. Further, the “Cross-Reactivity (%)” value in experiment [2] (With 5-FU (379 ng/mL)) was −0.01%; in experiment [2] (Without 5-FU), 0.000%. The cross-reactivity entry in experiment [2] was “essentially undetectable”.

As to `N.N.[Cl][Pt][Cl]` [Cisplatin], the “% Cross-React” value in experiment [1] (With 1000 ng/mL Spiked 5-FU) stood at 0.1%. Further, the “Cross-Reactivity (%)” value is −0.04% in experiment [2] (With 5-FU (379 ng/mL)) and 0.001% in experiment [2] (Without 5-FU). Further, in experiment [2], the cross-reactivity result is listed as “essentially undetectable”.

Take `O=C1NCC(F)C(=O)N1` (centres unmarked) [DH5FU, 5-Fluorodihydropyrimidine-2,4-dione]: in experiment [1] (With 1000 ng/mL Spiked 5-FU), the “% Cross-React” value amounted to 1.0%. The figures for the “Cross-Reactivity (%)” value in experiment [2] (With 5-FU (379 ng/mL)) and in experiment [2] (Without 5-FU) were 1.74% and 2.62%, respectively.

Consider `O=c1[nH]c(=O)n(C2CCCO2)cc1F` (centres unmarked) [Tegafur], for which the “% Cross-React” value in experiment [1] (With 75 ng/mL Spiked 5-FU) was determined as 56%; in experiment [1] (With 1000 ng/mL Spiked 5-FU) it was 45%; in experiment [1] (setting [5]), 42%. The “Cross-Reactivity (%)” value in experiment [2] (With 5-FU (379 ng/mL)) was 15.5%; in experiment [2] (Without 5-FU), 16.2%. In addition, in experiment [3], the cross-reactivity result is “less than 12%”.

For the compound `CCCCCOC(=O)Nc1nc(=O)n([C@@H]2O[C@H](C)[C@@H](O)[C@H]2O)cc1F` [Capecitabine], the figures for the “% Cross-React” value in experiment [1] (With 75 ng/mL Spiked 5-FU), in experiment [1] (With 1000 ng/mL Spiked 5-FU) and in experiment [1] (setting [5]) were 0.7%, 0.6% and 0.0%, respectively. The “Cross-Reactivity (%)” value is given as −0.13% in experiment [2] (With 5-FU (379 ng/mL)) and 0.00% in experiment [2] (Without 5-FU).

With `O=c1[nH]cc(F)c(=O)[nH]1` [5-FU, 5-Fluorouracil], the “ECL signal compared to CAL1” value in experiment [4] (5 minutes incubation at 37° C.) is recorded as 61%; in experiment [4] (other incubation timing (10, 15 minutes)), 78%.

As to `O=c1ccn([C@@H]2O[C@H](CO)[C@@H](O)[C@H]2O)c(=O)[nH]1` [Uridine], the entries for the “% Cross-React” value in experiment [1] (With 75 ng/mL Spiked 5-FU), in experiment [1] (With 1000 ng/mL Spiked 5-FU) and in experiment [1] (setting [5]) were 1.6%, 0.9% and 0.5%, respectively. Further, the figures for the “Cross-Reactivity (%)” value in experiment [2] (With 5-FU (379 ng/mL)) and in experiment [2] (Without 5-FU) were 0.16% and 0.21%, respectively.

For `CCc1c2c(nc3ccc(OC(=O)N4CCC(N5CCCCC5)CC4)cc13)-c1cc3c(c(=O)n1C2)COC(=O)[C@]3(O)CC` [Irinotecan], the “% Cross-React” value amounted to 0.1% in experiment [1] (With 75 ng/mL Spiked 5-FU) and 0.3% in experiment [1] (With 1000 ng/mL Spiked 5-FU). In addition, the cross-reactivity entry in experiment [2] is “essentially undetectable”.

On to `Cc1c[nH]c(=O)[nH]c1=O` [Thymine], for which the “% Cross-React” value in experiment [1] (With 75 ng/mL Spiked 5-FU) is on record as 2.5%; in experiment [1] (With 1000 ng/mL Spiked 5-FU) it was 2.2%; in experiment [1] (setting [5]), 1.0%. Further, the “Cross-Reactivity (%)” value in experiment [2] (With 5-FU (379 ng/mL)) was determined as 0.80%; in experiment [2] (Without 5-FU) it was 0.59%.

`Cc1cn([C@H]2C[C@H](O)[C@@H](CO)O2)c(=O)[nH]c1=O` [Thymidine]: the “% Cross-React” value in experiment [1] (With 75 ng/mL Spiked 5-FU) is 1.0%; in experiment [1] (With 1000 ng/mL Spiked 5-FU), 1.3%; in experiment [1] (setting [5]), 0.2%. Also, the “Cross-Reactivity (%)” value in experiment [2] (With 5-FU (379 ng/mL)) was found to be 0.13%; in experiment [2] (Without 5-FU), 0.05%.

Regarding Hemoglobin, the “% Cross-React” value in experiment [1] (With 75 ng/mL Spiked 5-FU) is 0.0%; in experiment [1] (With 1000 ng/mL Spiked 5-FU) it was −0.1%; in experiment [1] (setting [5]) it was 0.0%.

For `O=C1[O][Pt]2([NH][C@@H]3CCCC[C@H]3[NH]2)[O]C1=O` [Oxaliplatin], the “% Cross-React” value in experiment [1] (With 1000 ng/mL Spiked 5-FU) was 0.0%. Further, the entries for the “Cross-Reactivity (%)” value in experiment [2] (With 5-FU (379 ng/mL)) and in experiment [2] (Without 5-FU) were 0.01% and 0.000%, respectively. In addition, the cross-reactivity result in experiment [2] is “essentially undetectable”.

The values above are taken from patent US9702869B2, “Assays, antibodies, immunogens and compositions related to 5-FU” (WELLSTAT DIAGNOSTICS, LLC, priority 2011, dated 2017).
